Reference: patent US20240360154A1, “AROYL SUBSTITUTED TRICYCLIC COMPOUND, PREPARATION METHOD THEREFOR AND USE THEREOF” (GENFLEET THERAPEUTICS (SHANGHAI) INC., priority 2020, published 2024)

Legend:
BTK (C481S) = BTK (C481S) (Homo sapiens (Human), UniProt Q06187, C481S); experiment: BTK C481S enzyme experiment (ADP-Glo kinase assay); type: biochemical; conditions: 10 nM BTK C481S, ATP 125 μM, Poly(Glu4, Tyr1), 90 minutes at 20° C.
Procedure, shortened: (§1)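 Wild-type or C481S BTK, added as 2× solution at 10 nM, preincubated 10 min with 3-fold compound dilutions in 50 mM HEPES pH 7.5, 10 mM MgCl2, 2 mM DTT, 0.0015% Brij-35. ADP-Glo luminescence norm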

BTK = BTK (Homo sapiens (Human), UniProt Q06187); experiment: BTK enzyme experiment (ADP-Glo kinase assay); type: biochemical; conditions: 10 nM BTK, ATP 125 μM, Poly(Glu4, Tyr1), 90 minutes at 20° C.; read-out: BTK(WT) IC50
BTK, sequence (Q06187 whole entry): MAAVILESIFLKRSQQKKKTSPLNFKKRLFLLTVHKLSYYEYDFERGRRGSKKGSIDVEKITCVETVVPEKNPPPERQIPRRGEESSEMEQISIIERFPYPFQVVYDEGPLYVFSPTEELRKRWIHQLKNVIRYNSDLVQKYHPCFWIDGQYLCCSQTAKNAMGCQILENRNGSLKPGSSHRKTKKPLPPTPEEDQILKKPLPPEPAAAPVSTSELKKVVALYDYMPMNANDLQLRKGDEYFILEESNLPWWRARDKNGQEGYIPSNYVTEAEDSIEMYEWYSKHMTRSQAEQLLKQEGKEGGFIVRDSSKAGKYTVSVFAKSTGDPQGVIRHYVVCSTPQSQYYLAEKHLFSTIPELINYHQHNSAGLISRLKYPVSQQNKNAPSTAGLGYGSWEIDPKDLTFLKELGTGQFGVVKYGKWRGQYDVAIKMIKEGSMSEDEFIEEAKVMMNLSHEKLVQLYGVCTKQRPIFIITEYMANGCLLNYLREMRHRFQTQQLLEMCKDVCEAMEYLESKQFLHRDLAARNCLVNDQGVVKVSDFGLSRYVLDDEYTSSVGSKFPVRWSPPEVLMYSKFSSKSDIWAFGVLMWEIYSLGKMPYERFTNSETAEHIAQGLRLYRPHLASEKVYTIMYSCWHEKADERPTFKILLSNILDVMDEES
Procedure, shortened: as §1

p-BTK (WT) = p-BTK (WT) (Homo sapiens (Human), UniProt Q06187); experiment: p-BTK cell experiment, HEK293 transfected with WT-BTK plasmid (P-BTK Y223 sandwich ELISA); type: cell-based; conditions: HEK293 cells, compound cultured for two hours
p-BTK (WT), sequence (Q06187 whole entry): as above
Procedure: (§2) Day 1: HEK293 cells (ADDEXBIO, T0011001) at logarithmic growth phase were taken, digested with enzyme EDTA, collected and counted, and 2E6 cells were inoculated in a 10 cm culture dish and cultured overnight. Day 2: A mixed solution containing 6 μg of WT-BTK/C481S-BTK plasmid and 18 μL of FuGENE HD transfection reagent was prepared by using 1000 μL of Opti-MEM. After standing at room temperature for 10 minutes, the mixed solution was slowly added to the culture dish with a pipettor and cultured overnight. Day 3: The culture dish was taken out, and the cells were digested with enzyme EDTA, collected and counted, and 1E4 cells were inoculated in a 96-well cell culture plate and cultured overnight. A 3.16-fold gradient concentration stock solution of 1000× compound was prepared using DMSO, and placed at room temperature. Day 4: A prepared 1000× compound stock solution was taken, and diluted 200-fold to 5× compound stock solution with culture medium. 5× compound stock solution was added to each cell culture well with a final concentration of 1× compound stock solution and a DMSO content of 0.1%. DMSO was used as an experimental control. After the compound was added and cultured for two hours, the residual culture medium was removed. 100 μL of cell lysis buffer was added to each well, stood on ice for 30 minutes, and ultrasonically lysed with ice water for 5 minutes. After diluting the cell lysate in proportion, 80 μL of the mixture was transfer to an ELISA plate, and 80 μL of cell lysis buffer was added to the blank well. After incubating in an incubator at 37° C. for 2 hours, the plate was taken and the antibody incubation and color development termination operation were completed according to the instructions of Pathscan P-BTK (Y223) Sandwich ELISA Kit (Cell Signaling #23843 CA), and finally the OD value was read. The inhibition rate of the compound (%)=(ODcontrol−ODcompound)/(ODcontrol−ODblank)×100% was calculated. The compound gradient dilution concentration and the corresponding cell proliferation inhibition rate were fit by using Prism 8 four-parameter method, and IC50 value was calculated.

TMD-8 cells = experiment: TMD-8 proliferation inhibition experiment; type: cell-based; conditions: human diffuse large B lymphoma cells, three days incubation
Procedure, shortened: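 Log-phase cells seeded in 384-well plates (600 TMD-8 in RPMI 1640, 2000 OCI-LY10 in IMDM, both 10% FBS), then exposed one day later to 3-fold compound dilutions at 0.25% DMSO for three days. ADP-Glo luminescence read; inhibition versus DMSO and medium-only blank, IC50 by four-parameter fit.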

p-BTK (C481S) = p-BTK (C481S) (Homo sapiens (Human), UniProt Q06187, C481S); experiment: p-BTK cell experiment, HEK293 transfected with C481S-BTK plasmid (P-BTK Y223 sandwich ELISA); type: cell-based; conditions: HEK293 cells, compound cultured for two hours
p-BTK (C481S), sequence (Q06187 whole entry C481S): as the sequence (Q06187 whole entry) above, with C481S counted along it
Procedure: as §2

OCI-LY10 cells = experiment: OCI-LY10 proliferation inhibition experiment; type: cell-based; conditions: human diffuse large B lymphoma cells, three days incubation
Procedure: TMD-8 cells are human diffuse large B lymphoma (Mingzhou Bio, MZ-0832), cultured in 10% FBS+1% PS 1640 medium; OCI-LY10 is human diffuse large B lymphoma (BeNa Culture Collection, BNCC337742), cultured in 10% FBS+1% PS IMDM. Day 1: Cells at logarithmic growth phase were taken, counted and inoculated 600 TMD-8 or 2000 OCI-LY10 cells in a 384-well cell culture plate and cultured overnight. Day 2: A 3-fold gradient concentration stock solution of 400× compound was prepared with DMSO, and diluted 40-fold to a 10× compound stock solution with culture medium. The 10× compound stock solution was added to each cell culture well with a final concentration of 1× compound stock solution and a DMSO content of 0.25%. DMSO was used as experimental control, and culture medium was used as blank control. The incubation was continued for three days after compound addition. On the fifth day, 25 μL of […] was added to each well, mixed well and incubated for 10 minutes, then the chemiluminescence value (RLU value) was read. The cell proliferation inhibition rate (%)=(RLUcontrol−RLUcompound)/(RLUcontrol−RLUblank)×100% was calculated. The compound gradient dilution concentration and the corresponding cell proliferation inhibition rate were fit by using XLFit four-parameter method, and IC50 value was calculated.

BTK (C481S), sequence (Q06187 whole entry C481S): as the sequence (Q06187 whole entry) above, with C481S counted along it

IC50 (BTK (C481S)) [nM]	IC50 (BTK) [nM]	IC50 (p-BTK (WT)) [nM]	IC50 (p-BTK (C481S)) [nM]	IC50 (OCI-LY10 cells) [nM]	Compound	IC50 (TMD-8 cells) [nM]
9.2	19	29.2	50	200	CN1CC[C@]2(C1)Nc1c(cnc3[nH]cc(C(=O)c4ccc(Oc5ccccc5)cc4Cl)c13)NC2=O (single isomer, unassigned) [Z2-1]	123
12.3	19.4	123	72.8	238	CN1CCC2(C1)Nc1c(cnc3[nH]cc(C(=O)c4ccc(Oc5ccccc5)cc4Cl)c13)NC2=O (stereo not drawn) [Z2]	188
10.9	25.4	41.5	56.6	307	CN1CC[C@@]2(C1)Nc1c(cnc3[nH]cc(C(=O)c4ccc(Oc5ccccc5)cc4Cl)c13)NC2=O (single isomer, unassigned) [Z2-2]	266
